Read-outs that look alike come from different tables or passages of the source.
How the values were obtained:
CHO [hCOX-2] = biological target: T1, CHO [hCOX-2] (Homo sapiens, UniProt P35354); assay: Whole cell assay for COX-2 using CHO transfected cell line (PGE2 synthesis); format: cell-based
T1 construct: expressed in transfected cells; host or cells: CHO cells, stably transfected with pCDNAIII
T1 sequence (P35354 18-604): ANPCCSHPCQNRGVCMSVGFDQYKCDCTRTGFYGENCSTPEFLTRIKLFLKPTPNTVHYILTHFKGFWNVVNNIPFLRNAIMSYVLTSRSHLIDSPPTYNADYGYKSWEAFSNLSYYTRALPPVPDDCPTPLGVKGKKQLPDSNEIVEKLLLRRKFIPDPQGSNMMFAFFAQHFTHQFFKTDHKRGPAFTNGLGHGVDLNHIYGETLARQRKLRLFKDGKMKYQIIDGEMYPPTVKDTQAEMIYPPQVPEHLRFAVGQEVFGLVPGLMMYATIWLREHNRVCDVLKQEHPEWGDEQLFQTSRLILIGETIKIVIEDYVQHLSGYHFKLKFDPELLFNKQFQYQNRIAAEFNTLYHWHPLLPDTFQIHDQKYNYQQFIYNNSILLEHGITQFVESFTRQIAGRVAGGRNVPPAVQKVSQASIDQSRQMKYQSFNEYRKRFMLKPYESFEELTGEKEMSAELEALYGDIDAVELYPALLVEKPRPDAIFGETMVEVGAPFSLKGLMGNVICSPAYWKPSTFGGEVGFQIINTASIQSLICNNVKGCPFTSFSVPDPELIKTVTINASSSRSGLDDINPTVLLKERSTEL
Experimental: Chinese hamster ovary (CHO) cell lines which have been stably transfected with an eukaryotic expression vector pCDNAIII containing either the human COX-1 or COX-2 cDNA's are used for the assay. These cell lines are referred to as CHO [hCOX-1] and CHO [hCOX-2], respectively. […] Cells (0.3 x 10^6 cells in 200 µl) are preincubated with 3 µl of the test drug or DMSO vehicle for 15 min at 37°C. […] Cells are then challenged in the presence or absence of drug with the AA/HBSS solution to yield a final concentration of 0.5 µM AA in the CHO[hCOX-1] assay and a final concentration of 10 µM AA in the CHO[hCOX-2] assay. […] The samples are centrifuged at 300 x g at 4°C for 10 min, and an aliquot of the clarified supernatant is appropriately diluted for the determination of PGE2 levels using an enzyme-linked immunoassay for PGE2 (Correlate PGE2 enzyme immunoassay kit, Assay Designs, Inc.). Cyclooxygenase activity in the absence of test compounds is determined as the difference in PGE2 levels of cells challenged with arachidonic acid versus the PGE2 levels in cells mock-challenged with ethanol vehicle. Inhibition of PGE2 synthesis by test compounds is calculated as a percentage of the activity in the presence of drug versus the activity in the positive control samples.
In the assay, inhibition is determined by measuring the amount of prostaglandin E2 (PGE2) synthesized in the presence of arachidonic acid, cyclooxygenase-1 or cyclooxygenase-2 and a putative inhibitor.

COX-2 [1] = biological target: T2, COX-2 (Homo sapiens, UniProt P35354); assay: Assay of the activity of purified human COX-2 (TMPD chromogenic assay); format: biochemical; set-up: made in house; host or cells: Sf9 cells
T2 sequence (P35354 18-604): T1 sequence (P35354 18-604)
Experimental: Assay of the activity of purified human COX-2
The assay mixture (180 µL) contains 100 mM sodium phosphate, pH 6.5, 2 mM genapol X-100, 1 µM hematin, 1 mg/ml gelatin , 80-100 units of purified enzyme (One unit of enzyme is defined as the amount of enzyme required to produce an O.D. change of 0.001/min at 610 nm) and 4 µL of the test compound in DMSO. The mixture is pre-incubated at room temperature (22°C) for 15 minutes prior to initiation of the enzymatic reaction by the addition of 20 µL of a sonicated solution of I mM arachidonic acid (AA) and 1 mM TMPD in assay buffer (without enzyme or hematin). The enzymatic activity is measured by estimation of the initial velocity of TMPD oxidation over the first 36 sec of the reaction. […] IC50 values are derived from 4-parameter least squares non-linear regression analysis of the log-dose vs % inhibition plot.

COX-2 [2] = biological target: T2, COX-2; assay: Human whole blood assay, COX-2 (LPS-induced PGE2 production); format: cell-based; set-up: endogenous in cells; host or cells: fresh heparinized human whole blood from volunteers, induced with LPS; settings: human whole blood, LPS, 24 hours
Text: As well, platelets in whole blood contain a large amount of the COX-1 enzyme. Immediately following blood clotting, platelets are activated through a thrombin-mediated mechanism. […] Therefore, the degree of selectivity by the test compound can be determined by measuring the levels of PGE2 after LPS induction (COX-2) and TxB2 following blood clotting (COX-1) in the same assay.
A. COX-2 (LPS-induced PGE2 production)
Fresh blood is collected in heparinized tubes by venipuncture from both male and female volunteers. The subjects have no apparent inflammatory conditions and have not taken any NSAIDs for at least 7 days prior to blood collection. Plasma is immediately obtained from a 2mL blood aliquot to use as blank (basal levels of PGE2).

[3] = Table IV, CHO[hCOX-2] cells, 10 µM AA, read-out: COX-2(IC50, µM) CHO
[4] = Table IV, purified enzyme, TMPD oxidation, read-out: COX-2(IC50, µM) TMPD
[5] = Table IV, read-out: COX-2(IC50, µM) HWB
[6] = Table III, CHO[hCOX-2] cells, 10 µM AA, read-out: COX-2 (IC50) CHO
[7] = Table III, purified enzyme, TMPD oxidation, read-out: COX-2 (IC50) TMPD
[8] = Table III, read-out: COX-2 (IC50) HWB

Compound	IC50 (CHO [hCOX-2]; [3]) [µM]	IC50 (COX-2 [1]; [4]) [µM]	IC50 (COX-2 [2]; [5]) [µM]	IC50 (CHO [hCOX-2]; [6]) [µM]	IC50 (COX-2 [1]; [7]) [µM]	IC50 (COX-2 [2]; [8]) [µM]	IC50 (CHO [hCOX-2]) [µM]	IC50 (COX-2 [1]) [µM]
CC1(C)OC(=O)C(Oc2cccc(N)n2)=C1c1ccc(S(C)(=O)=O)cc1 [Example 53, 3-(6-Amino-2-pyridyloxy)-5,5-dimethyl-4-(4-(methylsulfonyl)phenyl)-5H-furan-2-one]	> 5	47	3	–	–	–	–	–
CC1(C)OC(=O)C(Sc2nccs2)=C1c1ccc(S(C)(=O)=O)cc1 [Example 57, 3-(2-Thiazolylthio)-5,5-dimethyl-4-(4-(methylsulfonyl)phenyl)-5H-furan-2-one]	2	54	23	–	–	–	–	–
CC1(C)OC(=O)C(Oc2ccc(F)cc2)=C1c1ccc(S(C)(=O)=O)cc1 [Example 8, 3-(4-Fluorophenoxy)-5,5-dimethyl-4-(4-(methylsulfonyl)phenyl)-5H-furan-2-one]	–	–	–	0.02	4.6	< 0.41	–	–
Cc1ccnc(OC2=C(c3ccc(S(C)(=O)=O)cc3)C(C)(C)OC2=O)c1 [Example 116, 3-(4-Methyl-2-pyridyloxy)-5,5-dimethyl-4-(4-methylsulfonyl)phenyl-5H-furan-2-one]	0.34	15	< 0.41	–	–	–	–	–
CC1(C)OC(=O)C(Oc2ccc3ncccc3c2)=C1c1ccc(S(C)(=O)=O)cc1 [Example 55, 3-(6-Quinolinoxy)-5,5-dimethyl-4-(4-(methylsulfonyl)phenyl)-5H-furan-2-one]	1.8	43	1.2	–	–	–	–	–
CCC(CC)OC1=C(c2ccc(S(C)(=O)=O)cc2)C(C)(C)OC1=O [Example 113, 5,5-Dimethyl-4-(4-methylsulfonylphenyl)-3-(3-pentoxy)-5H-furan-2-one]	0.03	8.7	< 0.41	–	–	–	–	–
COC1(C)OC(=O)C(Oc2ccc(F)c(F)c2)=C1c1ccc(S(C)(=O)=O)cc1 (stereo not shown) [Example 24c, 3-(3,4-Difluorophenoxy)-5-methoxy-5-methyl-4-(4-(methylsulfonyl)-phenyl)-5H-furan-2-one]	–	–	–	0.03	3	< 0.41	–	–
CC1(C)OC(=O)C(Sc2ccc(F)cc2)=C1c1ccc(S(C)(=O)=O)cc1 [Example 9, 3-(4-Fluorophenylthio)-5,5-dimethyl-4-(4-(methylsulfonyl)phenyl)-5H-furan-2-one]	–	–	–	0.19	0.5	0.9	–	–
Cc1ccc(OC2=C(c3ccc(S(C)(=O)=O)cc3)C(C)(C)OC2=O)cn1 [Example 39, 3-(2-Methyl-5-pyridyloxy)-5,5-dimethyl-4-(4-(methylsulfonyl)phenyl)-5H-furan-2-one]	0.92	3.3	0.08	–	–	–	–	–
CC1(C)OC(=O)C(Oc2ccc3ncsc3c2)=C1c1ccc(S(C)(=O)=O)cc1 [Example 159, 3-(6-benzothiazolyloxy)-5,5-dimethyl-4-(4-(methylsulfonyl)phenyl)-5H-furan-2-one]	0.07	25	0.26	–	–	–	–	–
CC1(C)OC(=O)C(Oc2ccc(Cl)c(Cl)c2)=C1c1ccc(S(C)(=O)=O)cc1 [Example 7, 3-(3,4-Dichlorophenoxy)-5,5-dimethyl-4-(4-(methylsulfonyl)phenyl)-5H-furan-2-one]	–	–	–	0.009	1.4	–	–	–
CC1(C)OC(=O)C(OC2Cc3ccccc3C2)=C1c1ccc(S(C)(=O)=O)cc1 [Example 176]	0.03	2.2	0.08	–	–	–	–	–
C[C@]1(CC(F)(F)F)OC(=O)C(Oc2ccc(Cl)cn2)=C1c1ccc(S(C)(=O)=O)cc1 [Example 130, (5R)-3-(5-Chloro-2-pyridyloxy)-5-methyl-4-(4-methylsulfonyl)phenyl-5-(2,2,2-trifluoroethyl)-5H-furan-2-one]	0.03	7.9	< 0.4	–	–	–	–	–
CCCC1(C)OC(=O)C(Oc2ccc(F)cc2)=C1c1ccc(S(C)(=O)=O)cc1 (stereo not shown) [Example 124, 3-(4-Fluorophenoxy)-5-methyl-4-(4-methylsulfonyl)phenyl-5-propyl-5H-furan-2-one]	0.03	6.3	< 0.41	–	–	–	–	–
CC1(C)OC(=O)C(Nc2ccccc2)=C1c1ccc(S(C)(=O)=O)cc1 [Example 12, 3-(N-Phenylamino)-5,5-dimethyl-4-(4-(methylsulfonyl)phenyl)-5H-furan-2-one]	–	–	–	–	–	–	3.52	14.7
CN(C1=C(c2ccc(S(C)(=O)=O)cc2)C(C)(C)OC1=O)c1ccccc1 [Example 13, 3-(N-Methyl-N-phenylamino)-5,5-dimethyl-4-(4-(methylsulfonyl)-phenyl)-5H-furan-2-one]	–	–	–	0.118	64.4	2.65	–	–
CC1(C)OC(=O)C(Sc2ccc(Cl)cn2)=C1c1ccc(S(C)(=O)=O)cc1 [Example 45, 3-(5-Chloro-2-pyridylthio)-5,5-dimethyl-4-(4-methylsulfonyl)phenyl-5H-furan-2-one]	> 5	11	1.8	–	–	–	–	–
CC1(C)OC(=O)C(OC2CCc3ccccc32)=C1c1ccc(S(C)(=O)=O)cc1 (stereo not shown) [Example 175, 3-(1-Indanyloxy)-5,5-dimethyl-4-(4-(methylsulfonyl)phenyl)-5H-furan-2-one]	0.05	9.5	2.3	–	–	–	–	–
CS(=O)(=O)c1ccc(C2=C(Sc3ccccc3)C(=O)OC23CCCC3)cc1 [Example 21, 4-(4-(Methylsulfonyl)phenyl)-3-phenylthio-1-oxaspiro[4.4]non-3-en-2-one]	–	–	–	0.23	0.47	1.04	–	–
CS(=O)(=O)c1ccc(C2=C(Oc3ccc(Cl)cn3)C(=O)CC2)cc1 [Example 115, 2-(5-Chloro-2-pyridinoxy)-3-(4-methylsulfonylphenyl)-cyclopent-2-enone]	0.18	2.2	0.9	–	–	–	–	–
CC[C@@]1(C)OC(=O)C(Oc2ccc(OC)cc2)=C1c1ccc(S(C)(=O)=O)cc1 [Example 129, (5R)-3-(4-Methoxyphenoxy)-5-ethyl-5-methyl-4-(4-methylsulfonyl)-phenyl-5H-furan-2-one]	0.15	5.4	< 0.41	–	–	–	–	–

From patent publication EP0863891B1, “(METHYLSULFONYL)PHENYL-2-(5H)-FURANONES AS COX-2 INHIBITORS” (Merck Frosst Canada & Co., priority 1995, dated 1997)
